Source: patent US11427869B2, “T cell balance gene expression, compositions of matters and methods of use thereof” (THE BROAD INSTITUTE, INC., priority 2015, dated 2022)

Tested on: CD5L−/− Th17 cells
Assay: Nanostring nCounter Th17 codeset (312 genes), PUFA- or control-treated CD5L−/− Th17 cells
Assay type: cell-based, mouse
Text: Applicants studied the contribution of lipid saturation to Th17 cell pathogenicity. […] Applicants analyzed the expression of a 312 gene signature of Th17 cell differentiation and function (Yosef et al., 2013) in SFA- or control-treated WT Th17 cells and in PUFA- or control-treated CD5L−/− Th17 cells differentiated with TGF-81+IL-6.
T cell differentiation culture. Naïve CD4+CD44−CD62L+CD25− T cells or Effector memory CD4+CD44+CD62L− were sorted using BD FACSAria sorter and activated with plate-bound anti-CD3 and anti-CD28 antibodies (both at 2 μg/ml) in the presence of cytokines at a concentration of 2.5×10^5 cells/ml. For Th17 differentiation: 2 ng/ml of rhTGFβ1, 2 ng/ml of rhTGFβ3, 25 ng/ml rmIL-6, 20 ng/ml rmIL-18 (all from Miltenyi Biotec) and 20 ng/ml rmIL-23 (R & D systems) were used at various combinations as specified in figures. For Th1 differentiation, 20 ng/ml rmIL-12 (R & D systems); for Th2 differentiation 20 ng/ml rmIL-4 (Miltenyi Biotec); for iTreg differentiation, 2.5 ng/ml of rhTGFβ1 were used (Miltenyi Biotec). For differentiation experiments, cells were harvested at 48 hours. For restimulation experiments, cells were differentiated for 48 hours and resuspended in fresh media with no additional cytokines for 48-72 hours. Cells were re-stimulated with PMA/ionomycin for four hours before analysis for cytokines by intracellular cytokine staining. For experiments with exogenous fatty acid, fatty acids were purchased and resuspended first with serum-free media containing BSA prior being added to culture.
Nanostring nCounter. Nanostring nCounter platform (NanoString Technologies) is used to measure the number of RNA transcripts in RNA samples (FIG. 16I, FIG. 18D). A codeset containing 312 signature genes of Th17 cell differentiation and function as well as 4 additional house-keeping genes were custom-made (Yosef et al., 2013) and used in these experiments. Experimental procedures as detailed by the manufacturer is strictly followed.

With `CCCCC/C=C\C/C=C\C/C=C\C/C=C\CCCC(=O)O` [PUFA, arachidonic acid] the “Irf4 expression (Nanostring), normalized to WT” value (CD5LKO Th17 cells + PUFA) was 0.65, the “Irf7 expression (Nanostring), normalized to WT” value (CD5LKO Th17 cells + PUFA) was 1.17 and the “Irf8 expression (Nanostring), normalized to WT” value (CD5LKO Th17 cells + PUFA) was 1.29. The “Itga3 expression (Nanostring), normalized to WT” value (CD5LKO Th17 cells + PUFA) was 0.76, the “Jak3 expression (Nanostring), normalized to WT” value (CD5LKO Th17 cells + PUFA) was 1.27 and the “Jun expression (Nanostring), normalized to WT” value (CD5LKO Th17 cells + PUFA) was 0.64. The “Kat2b expression (Nanostring), normalized to WT” value (CD5LKO Th17 cells + PUFA) was 1.22, the “Klf9 expression (Nanostring), normalized to WT” value (CD5LKO Th17 cells + PUFA) was 0.75 and the “Klf10 expression (Nanostring), normalized to WT” value (CD5LKO Th17 cells + PUFA) was 1.30. The “Klrd1 expression (Nanostring), normalized to WT” value (CD5LKO Th17 cells + PUFA) was 0.63, the “Lad1 expression (Nanostring), normalized to WT” value (CD5LKO Th17 cells + PUFA) was 1.18 and the “Lgals3bp expression (Nanostring), normalized to WT” value (CD5LKO Th17 cells + PUFA) was 1.34. The “Litaf expression (Nanostring), normalized to WT” value (CD5LKO Th17 cells + PUFA) was 0.61, the “Lpxn expression (Nanostring), normalized to WT” value (CD5LKO Th17 cells + PUFA) was 1.39 and the “Maf expression (Nanostring), normalized to WT” value (CD5LKO Th17 cells + PUFA) was 0.84. For the same molecule, the “Maff expression (Nanostring), normalized to WT” value (CD5LKO Th17 cells + PUFA) was 0.77, the “Map3k5 expression (Nanostring), normalized to WT” value (CD5LKO Th17 cells + PUFA) was 1.49 and the “Mbnl3 expression (Nanostring), normalized to WT” value (CD5LKO Th17 cells + PUFA) was 1.30. The “Mina expression (Nanostring), normalized to WT” value (CD5LKO Th17 cells + PUFA) was 1.08, the “Mt1 expression (Nanostring), normalized to WT” value (CD5LKO Th17 cells + PUFA) was 0.79 and the “Mt2 expression (Nanostring), normalized to WT” value (CD5LKO Th17 cells + PUFA) was 0.84. The “Nfkbie expression (Nanostring), normalized to WT” value (CD5LKO Th17 cells + PUFA) was 1.52, the “Nkg7 expression (Nanostring), normalized to WT” value (CD5LKO Th17 cells + PUFA) was 1.40 and the “Notch2 expression (Nanostring), normalized to WT” value (CD5LKO Th17 cells + PUFA) was 1.20. For the same molecule, the “Oas2 expression (Nanostring), normalized to WT” value (CD5LKO Th17 cells + PUFA) was 0.82, the “Peli2 expression (Nanostring), normalized to WT” value (CD5LKO Th17 cells + PUFA) was 0.83 and the “Plac8 expression (Nanostring), normalized to WT” value (CD5LKO Th17 cells + PUFA) was 0.85. The “Plagl1 expression (Nanostring), normalized to WT” value (CD5LKO Th17 cells + PUFA) was 1.07, the “Pmepa1 expression (Nanostring), normalized to WT” value (CD5LKO Th17 cells + PUFA) was 1.19 and the “Pou2af1 expression (Nanostring), normalized to WT” value (CD5LKO Th17 cells + PUFA) was 0.86. The “Prkd3 expression (Nanostring), normalized to WT” value (CD5LKO Th17 cells + PUFA) was 1.51, the “Pstpip1 expression (Nanostring), normalized to WT” value (CD5LKO Th17 cells + PUFA) was 1.24 and the “Rab33a expression (Nanostring), normalized to WT” value (CD5LKO Th17 cells + PUFA) was 1.50. The “Rasgrp1 expression (Nanostring), normalized to WT” value (CD5LKO Th17 cells + PUFA) was 1.21, the “Rel expression (Nanostring), normalized to WT” value (CD5LKO Th17 cells + PUFA) was 0.73 and the “Rela expression (Nanostring), normalized to WT” value (CD5LKO Th17 cells + PUFA) was 0.96. The “Rfk expression (Nanostring), normalized to WT” value (CD5LKO Th17 cells + PUFA) was 1.07, the “Rorc expression (Nanostring), normalized to WT” value (CD5LKO Th17 cells + PUFA) was 1.52 and the “Sap30 expression (Nanostring), normalized to WT” value (CD5LKO Th17 cells + PUFA) was 0.81. For the same molecule, the “Sema7a expression (Nanostring), normalized to WT” value (CD5LKO Th17 cells + PUFA) was 1.04, the “Serpinb1a expression (Nanostring), normalized to WT” value (CD5LKO Th17 cells + PUFA) was 0.77 and the “Ski expression (Nanostring), normalized to WT” value (CD5LKO Th17 cells + PUFA) was 0.86. For the same molecule, the “Slc6a6 expression (Nanostring), normalized to WT” value (CD5LKO Th17 cells + PUFA) was 1.03, the “Smad3 expression (Nanostring), normalized to WT” value (CD5LKO Th17 cells + PUFA) was 1.03 and the “Socs3 expression (Nanostring), normalized to WT” value (CD5LKO Th17 cells + PUFA) was 1.38. The “Spp1 expression (Nanostring), normalized to WT” value (CD5LKO Th17 cells + PUFA) was 0.66, the “Spry1 expression (Nanostring), normalized to WT” value (CD5LKO Th17 cells + PUFA) was 1.02 and the “Stat4 expression (Nanostring), normalized to WT” value (CD5LKO Th17 cells + PUFA) was 1.21. For the same molecule, the “Stat5b expression (Nanostring), normalized to WT” value (CD5LKO Th17 cells + PUFA) was 1.19, the “Stat6 expression (Nanostring), normalized to WT” value (CD5LKO Th17 cells + PUFA) was 1.13 and the “Sult2b1 expression (Nanostring), normalized to WT” value (CD5LKO Th17 cells + PUFA) was 0.61. For the same molecule, the “Tal2 expression (Nanostring), normalized to WT” value (CD5LKO Th17 cells + PUFA) was 1.52, the “Tcf4 expression (Nanostring), normalized to WT” value (CD5LKO Th17 cells + PUFA) was 1.29 and the “Tgfb1 expression (Nanostring), normalized to WT” value (CD5LKO Th17 cells + PUFA) was 0.68. The “Tgfb3 expression (Nanostring), normalized to WT” value (CD5LKO Th17 cells + PUFA) was 1.67, the “Tgfbr3 expression (Nanostring), normalized to WT” value (CD5LKO Th17 cells + PUFA) was 0.94 and the “Tgm2 expression (Nanostring), normalized to WT” value (CD5LKO Th17 cells + PUFA) was 1.51. The “Tmem229b expression (Nanostring), normalized to WT” value (CD5LKO Th17 cells + PUFA) was 1.52, the “Tnfrsf4 expression (Nanostring), normalized to WT” value (CD5LKO Th17 cells + PUFA) was 1.05 and the “Tnip2 expression (Nanostring), normalized to WT” value (CD5LKO Th17 cells + PUFA) was 0.78. For the same molecule, the “Trat1 expression (Nanostring), normalized to WT” value (CD5LKO Th17 cells + PUFA) was 0.85, the “Trim25 expression (Nanostring), normalized to WT” value (CD5LKO Th17 cells + PUFA) was 1.17 and the “Trps1 expression (Nanostring), normalized to WT” value (CD5LKO Th17 cells + PUFA) was 1.44. The “Tsc22d3 expression (Nanostring), normalized to WT” value (CD5LKO Th17 cells + PUFA) was 0.66, the “Ubiad1 expression (Nanostring), normalized to WT” value (CD5LKO Th17 cells + PUFA) was 1.16 and the “Vav3 expression (Nanostring), normalized to WT” value (CD5LKO Th17 cells + PUFA) was 1.20. For the same molecule, the “Xrcc5 expression (Nanostring), normalized to WT” value (CD5LKO Th17 cells + PUFA) was 1.27, the “nrp1 expression (Nanostring), normalized to WT” value (CD5LKO Th17 cells + PUFA) was 0.90 and the “pou2f1 expression (Nanostring), normalized to WT” value (CD5LKO Th17 cells + PUFA) was 0.66. For the same molecule, the “transcriptional signature (312 gene Th17 codeset, genes >1.5 fold)” value (PUFA-treated CD5L−/− Th17 cells, TGF-β1+IL-6) was “resemble WT non-pathogenic Th17 cells”.
